Assay results taken from US20220265694A1, “COMPOSITIONS AND METHODS FOR TREATING AN INFECTION” (CMPD LICENSING, LLC, priority 2016, published 2022).

Tests used:
Providencia rettgeri = experiment: Expected efficacy of antibiotic agents; conditions: expected efficacy against Providencia rettgeri; Gram: neg
Escherichia coli = experiment: Expected efficacy of antibiotic agents; conditions: expected efficacy against Escherichia coli; Gram: neg
Bartonella bacilliformis = experiment: Expected efficacy of antibiotic agents; conditions: expected efficacy against Bartonella bacilliformis; Gram: neg
Shigella sonnei = experiment: Expected efficacy of antibiotic agents; conditions: expected efficacy against Shigella sonnei; Gram: neg
Klebsiella oxytoca = experiment: Expected efficacy of antibiotic agents; conditions: expected efficacy against Klebsiella oxytoca; Gram: neg
Providencia stuartii = experiment: Expected efficacy of antibiotic agents; conditions: expected efficacy against Providencia stuartii; Gram: neg
Chlamydia pneumoniae = experiment: Expected efficacy of antibiotic agents; conditions: expected efficacy against Chlamydia pneumoniae; Gram: n/a
Pseudomonas fluorescens = experiment: Expected efficacy of antibiotic agents; conditions: expected efficacy against Pseudomonas fluorescens; Gram: neg
Shigella boydii = experiment: Expected efficacy of antibiotic agents; conditions: expected efficacy against Shigella boydii; Gram: neg
Morganella morganii = experiment: Expected efficacy of antibiotic agents; conditions: expected efficacy against Morganella morganii; Gram: neg
Neisseria meningitidis = experiment: Expected efficacy of antibiotic agents; conditions: expected efficacy against Neisseria meningitidis; Gram: neg
Rickettsiae = conditions: expected efficacy against Rickettsiae; Gram: neg
Moraxella catarrhalis = experiment: Expected efficacy of antibiotic agents; conditions: expected efficacy against Moraxella catarrhalis; Gram: neg
Salmonella typhi = experiment: Expected efficacy of antibiotic agents; conditions: expected efficacy against Salmonella typhi; Gram: neg
Citrobacter diversus = experiment: Expected efficacy of antibiotic agents; conditions: expected efficacy against Citrobacter diversus; Gram: neg
Enterococcus faecium = experiment: Expected efficacy of antibiotic agents; conditions: expected efficacy against Enterococcus faecium; Gram: pos
Corynebacterium jeikeium = experiment: Expected efficacy of antibiotic agents; conditions: expected efficacy against Corynebacterium jeikeium; Gram: pos
Yersinia pestis = conditions: expected efficacy against Yersinia pestis; Gram: neg
Shigella dysenteriae = experiment: Expected efficacy of antibiotic agents; conditions: expected efficacy against Shigella dysenteriae; Gram: neg
[1] = tested on: Haemophilus parainfluenzae; experiment: Expected efficacy of antibiotic agents; conditions: expected efficacy against Haemophilus parainfluenzae; Gram: neg
Shigella flexneri = experiment: Expected efficacy of antibiotic agents; conditions: expected efficacy against Shigella flexneri; Gram: neg
Citrobacter freundii = experiment: Expected efficacy of antibiotic agents; conditions: expected efficacy against Citrobacter freundii; Gram: neg
Klebsiella pneumoniae = experiment: Expected efficacy of antibiotic agents; conditions: expected efficacy against Klebsiella pneumoniae; Gram: neg
Vibrio cholerae = experiment: Expected efficacy of antibiotic agents; conditions: expected efficacy against Vibrio cholerae; Gram: neg
Proteus mirabilis = experiment: Expected efficacy of antibiotic agents; conditions: expected efficacy against Proteus mirabilis; Gram: neg
Haemophilus influenzae = experiment: Expected efficacy of antibiotic agents; conditions: expected efficacy against Haemophilus influenzae; Gram: neg
[2] = tested on: Methicillin resistant staph aureus (MRSA); experiment: Expected efficacy of antibiotic agents; conditions: expected efficacy against Methicillin resistant staph aureus (MRSA); Gram: pos
[3] = tested on: Staphylococcus epidermidis; experiment: Expected efficacy of antibiotic agents; conditions: expected efficacy against Staphylococcus epidermidis; Gram: pos
Enterobacter aerogenes = experiment: Expected efficacy of antibiotic agents; conditions: expected efficacy against Enterobacter aerogenes; Gram: neg
Legionella pneumophila = conditions: expected efficacy against Legionella pneumophila; Gram: neg
Francisella tularensis = conditions: expected efficacy against Francisella tularensis; Gram: neg
Proteus vulgaris = experiment: Expected efficacy of antibiotic agents; conditions: expected efficacy against Proteus vulgaris; Gram: neg
Neisseria gonorrhoeae = experiment: Expected efficacy of antibiotic agents; conditions: expected efficacy against Neisseria gonorrhoeae; Gram: neg
Serratia marcescens = experiment: Expected efficacy of antibiotic agents; conditions: expected efficacy against Serratia marcescens; Gram: neg
Campylobacter jejuni = experiment: Expected efficacy of antibiotic agents; conditions: expected efficacy against Campylobacter jejuni; Gram: neg
Bacteroides fragilis = experiment: Expected efficacy of antibiotic agents; conditions: expected efficacy against Bacteroides fragilis; Gram: anaer
Pseudomonas aeruginosa = experiment: Expected efficacy of antibiotic agents; conditions: expected efficacy against Pseudomonas aeruginosa; Gram: neg
Bordetella pertussis = experiment: Expected efficacy of antibiotic agents; conditions: expected efficacy against Bordetella pertussis; Gram: neg
Chlamydia psittaci = conditions: expected efficacy against Chlamydia psittaci; Gram: n/a
Streptococcus pyogenes = experiment: Expected efficacy of antibiotic agents; conditions: expected efficacy against Streptococcus pyogenes; Gram: pos
Mycoplasma pneumoniae = experiment: Expected efficacy of antibiotic agents; conditions: expected efficacy against Mycoplasma pneumoniae; Gram: n/a
Acinetobacter lwoffii = experiment: Expected efficacy of antibiotic agents; conditions: expected efficacy against Acinetobacter lwoffii; Gram: neg
[4] = tested on: Acinetobacter calcoaceticus; experiment: Expected efficacy of antibiotic agents; conditions: expected efficacy against Acinetobacter calcoaceticus; Gram: neg
Enterococcus faecalis = experiment: Expected efficacy of antibiotic agents; conditions: expected efficacy against Enterococcus faecalis; Gram: pos
[5] = tested on: Klebsiella (Calymmatobacterium); experiment: Expected efficacy of antibiotic agents; conditions: expected efficacy against Klebsiella (Calymmatobacterium); Gram: neg
Clostridium perfringens = conditions: expected efficacy against Clostridium perfringens; Gram: anaer
Enterobacter cloacae = experiment: Expected efficacy of antibiotic agents; conditions: expected efficacy against Enterobacter cloacae; Gram: neg
Acinetobacter baumannii = experiment: Expected efficacy of antibiotic agents; conditions: expected efficacy against Acinetobacter baumannii; Gram: neg
Enterobacter sakazakii = experiment: Expected efficacy of antibiotic agents; conditions: expected efficacy against Enterobacter sakazakii; Gram: neg
[6] = tested on: Staphylococcus aureus (MSSA); experiment: Expected efficacy of antibiotic agents; conditions: expected efficacy against Staphylococcus aureus (MSSA); Gram: pos
Chlamydia trachomatis = experiment: Expected efficacy of antibiotic agents; conditions: expected efficacy against Chlamydia trachomatis; Gram: n/a
Streptococcus agalactiae = experiment: Expected efficacy of antibiotic agents; conditions: expected efficacy against Streptococcus agalactiae; Gram: pos
Clostridium difficile = experiment: Expected efficacy of antibiotic agents; conditions: expected efficacy against Clostridium difficile; Gram: anaer
Streptococcus pneumoniae = experiment: Expected efficacy of antibiotic agents; conditions: expected efficacy against Streptococcus pneumoniae; Gram: pos
Brucella species = conditions: expected efficacy against Brucella species; Gram: neg
[7] = tested on: Corynebacterium urealyticum; experiment: Expected efficacy of antibiotic agents; conditions: expected efficacy against Corynebacterium urealyticum; Gram: pos
Haemophilus ducreyi = experiment: Expected efficacy of antibiotic agents; conditions: expected efficacy against Haemophilus ducreyi; Gram: neg
Candida species = experiment: Expected efficacy of antifungal agents; conditions: expected efficacy against Candida species

SMILES: O=C(O)c1cn(C2CC2)c2cc(N3CCNCC3)c(F)cc2c1=O [Ciprofloxacin]
- Efficacy (Providencia rettgeri): yes
- Efficacy (Escherichia coli): yes
- Efficacy (Bartonella bacilliformis): yes
- Efficacy (Shigella sonnei): yes
- Efficacy (Klebsiella oxytoca): yes
- Efficacy (Providencia stuartii): yes
- Efficacy (Chlamydia pneumoniae): yes
- Efficacy (Pseudomonas fluorescens): yes
- Efficacy (Shigella boydii): yes
- Efficacy (Morganella morganii): yes
- Efficacy (Neisseria meningitidis): yes
- Efficacy (Rickettsiae): yes
- Efficacy (Moraxella catarrhalis): yes
- Efficacy (Salmonella typhi): yes
- Efficacy (Citrobacter diversus): yes
- Efficacy (Enterococcus faecium): no
- Efficacy (Corynebacterium jeikeium): no
- Efficacy (Yersinia pestis): yes
- Efficacy (Shigella dysenteriae): yes
- Efficacy [1]: yes
- Efficacy (Shigella flexneri): yes
- Efficacy (Citrobacter freundii): yes
- Efficacy (Klebsiella pneumoniae): yes
- Efficacy (Vibrio cholerae): yes
- Efficacy (Proteus mirabilis): yes
- Efficacy (Haemophilus influenzae): yes
- Efficacy [2]: no
- Efficacy [3]: yes
- Efficacy (Enterobacter aerogenes): yes
- Efficacy (Legionella pneumophila): yes
- Efficacy (Francisella tularensis): yes
- Efficacy (Proteus vulgaris): yes
- Efficacy (Neisseria gonorrhoeae): yes
- Efficacy (Serratia marcescens): yes
- Efficacy (Campylobacter jejuni): yes
- Efficacy (Bacteroides fragilis): no
- Efficacy (Pseudomonas aeruginosa): yes

SMILES: CC[C@H]1OC(=O)[C@H](C)[C@@H](O[C@H]2C[C@@](C)(OC)[C@@H](O)[C@H](C)O2)[C@H](C)[C@@H](O[C@@H]2O[C@H](C)C[C@H](N(C)C)[C@H]2O)[C@](C)(O)C[C@@H](C)CN(C)[C@H](C)[C@@H](O)[C@]1(C)O [Azithromycin]
- Efficacy (Bordetella pertussis): yes
- Efficacy (Chlamydia psittaci): yes
- Efficacy (Providencia rettgeri): no
- Efficacy (Escherichia coli): no
- Efficacy (Bartonella bacilliformis): yes
- Efficacy (Klebsiella oxytoca): no
- Efficacy (Providencia stuartii): no
- Efficacy (Streptococcus pyogenes): yes
- Efficacy (Chlamydia pneumoniae): yes
- Efficacy (Pseudomonas fluorescens): no
- Efficacy (Mycoplasma pneumoniae): yes
- Efficacy (Morganella morganii): no
- Efficacy (Acinetobacter lwoffii): no
- Efficacy (Neisseria meningitidis): yes
- Efficacy (Rickettsiae): yes
- Efficacy (Moraxella catarrhalis): yes
- Efficacy (Citrobacter diversus): no
- Efficacy [4]: no
- Efficacy (Enterococcus faecalis): no
- Efficacy (Enterococcus faecium): no
- Efficacy (Corynebacterium jeikeium): no
- Efficacy [5]: no
- Efficacy (Clostridium perfringens): no
- Efficacy (Enterobacter cloacae): no
- Efficacy (Citrobacter freundii): no
- Efficacy (Klebsiella pneumoniae): no
- Efficacy (Vibrio cholerae): yes
- Efficacy (Acinetobacter baumannii): no
- Efficacy (Proteus mirabilis): no
- Efficacy (Haemophilus influenzae): yes
- Efficacy [2]: no
- Efficacy [3]: yes
- Efficacy (Enterobacter sakazakii): no
- Efficacy (Enterobacter aerogenes): no
- Efficacy [6]: yes
- Efficacy (Legionella pneumophila): yes
- Efficacy (Chlamydia trachomatis): yes
- Efficacy (Francisella tularensis): no
- Efficacy (Proteus vulgaris): no
- Efficacy (Streptococcus agalactiae): yes
- Efficacy (Clostridium difficile): no
- Efficacy (Serratia marcescens): no
- Efficacy (Streptococcus pneumoniae): yes
- Efficacy (Brucella species): no
- Efficacy (Campylobacter jejuni): yes
- Efficacy (Bacteroides fragilis): no
- Efficacy (Pseudomonas aeruginosa): no

SMILES: C/C(=C\C(=O)OCCCCCCCCC(=O)O)C[C@@H]1OC[C@H](C[C@@H]2O[C@H]2[C@@H](C)[C@H](C)O)[C@@H](O)[C@H]1O [Bactroban]
- Efficacy (Bordetella pertussis): no
- Efficacy (Providencia rettgeri): no
- Efficacy (Escherichia coli): no
- Efficacy (Bartonella bacilliformis): no
- Efficacy (Shigella sonnei): no
- Efficacy (Klebsiella oxytoca): no
- Efficacy [7]: no
- Efficacy (Providencia stuartii): no
- Efficacy (Streptococcus pyogenes): yes
- Efficacy (Pseudomonas fluorescens): no
- Efficacy (Shigella boydii): no
- Efficacy (Morganella morganii): no
- Efficacy (Acinetobacter lwoffii): no
- Efficacy (Neisseria meningitidis): no
- Efficacy (Rickettsiae): no
- Efficacy (Haemophilus ducreyi): no
- Efficacy (Moraxella catarrhalis): no
- Efficacy (Salmonella typhi): no
- Efficacy (Citrobacter diversus): no
- Efficacy [4]: no
- Efficacy (Corynebacterium jeikeium): no
- Efficacy (Yersinia pestis): no
- Efficacy (Shigella dysenteriae): no
- Efficacy [5]: no
- Efficacy (Clostridium perfringens): no
- Efficacy (Enterobacter cloacae): no
- Efficacy (Shigella flexneri): no
- Efficacy (Citrobacter freundii): no
- Efficacy (Klebsiella pneumoniae): no
- Efficacy (Vibrio cholerae): no
- Efficacy (Acinetobacter baumannii): no
- Efficacy (Proteus mirabilis): no
- Efficacy (Haemophilus influenzae): no
- Efficacy [2]: yes
- Efficacy (Enterobacter sakazakii): no
- Efficacy (Enterobacter aerogenes): no
- Efficacy [6]: yes
- Efficacy (Legionella pneumophila): no
- Efficacy (Francisella tularensis): no
- Efficacy (Proteus vulgaris): no
- Efficacy (Neisseria gonorrhoeae): no
- Efficacy (Serratia marcescens): no
- Efficacy (Brucella species): no
- Efficacy (Campylobacter jejuni): no
- Efficacy (Pseudomonas aeruginosa): no

SMILES: C[C@@H]1[C@H](O)[C@@H](C)/C=C/C=C/CC/C=C/C=C/C=C/C=C/C(O[C@H]2O[C@H](C)[C@@H](O)[C@H](N)[C@@H]2O)CC2O[C@](O)(CC(O)C(O)CCC(O)CC(O)CC(O)CC(=O)O[C@H]1C)CC(O)C2C(=O)O (stereo partly shown) [Nystatin]
- Efficacy (Candida species): yes
